This is an account of results in the supplement of paper PMC11208160.
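Also: IS621 bridge recombinase in Escherichia coli cells against a fixed T5 target plasmid.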

A short description of this series: recombinant UMI read abundance after kanamycin selection (control-corrected) (log10(CPM+1)); higher = more efficient recombination; extreme values may be limits of the assay; sequences stand for … in AGTGCAGAGAAAATCGGCCAGTTTTCTCTGCCTGCAGTCCGCATGCCGTGGGACCCCTTGGGTTCTAACCTGTTGCCTAGATTTATGCAGCGGACTGCCTTTCTCCCAAAGTGATAAACCGG…AGGTTGGTTTCACT; site = the 11-nt donor. In outline:
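Sequencing read counts were converted to CPM, averaged over two replicates and scaled by control-derived factors. Results are given as log10(CPM+1). The reads covered the donor–target junction of recombinant UMIs from a pooled Escherichia coli screen of donor and donor-binding-loop pairs for the IS621 bridge recombinase.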
As for “GTAGTCCCATGGACCGGTTTTCCCGGTAATCCGTATTTGCG (site GTAGTCGCTCG)”, the “recombinant UMI read abundance (log10)” value was determined as 0.16.
In the case of “GTAGTCCCATGGACCGGTTTTCCCGGTAATCCGTATTTGCG (site GTAGTCTCTCG)”, the “recombinant UMI read abundance (log10)” value worked out at 2.33.
As to “GTAGTCCCATGGACCGGTTTTCCCGGTAATCCGTATTTGGT (site GTAGTCCCTAC)”, the “recombinant UMI read abundance (log10)” value worked out at 0.588.
The same measure for “GTAGTCGCATGGACCGGTTTTCCCGGTAATCCGTATTTGCT (site GTAGTCGCTAG)”: 2.87; for “GTAGTCGCATGGACCGGTTTTCCCGGTAATCCGTATTTGCT (site GTAGTCGCTCG)”: 1.77; for “GTAGTCGCATGGACCGGTTTTCCCGGTAATCCGTATTTGCT (site GTAGTCGCTGG)”: 2.09.
Next, “GTAGTCGCATGGACCGGTTTTCCCGGTAATCCGTATTTGCT (site GTAGTCGCTTG)”: 1.57.
Next, “GTAGTCGCATGGACCGGTTTTCCCGGTAATCCGTATTTGGG (site GTAGTCGCTCA)”: 0.214; “GTAGTCGCATGGACCGGTTTTCCCGGTAATCCGTATTTGGG (site GTAGTCGCTCC)”: 0.132; “GTAGTCGCATGGACCGGTTTTCCCGGTAATCCGTATTTGGG (site GTAGTCGCTCG)”: 0.0493.
Take “GTAGTCGCATGGACCGGTTTTCCCGGTAATCCGTATTTGGG (site GTAGTCGCTCT)”: the “recombinant UMI read abundance (log10)” value was 0.661.
The same measure for “GTAGTTACATGGACCGGTTTTCCCGGTAATCCGTATTTGAC (site GTAGATACTGT)”: 2.18.
The same measure for “GTAGTTACATGGACCGGTTTTCCCGGTAATCCGTATTTGAC (site GTAGCTACTGT)”: 1.23; for “GTAGTTACATGGACCGGTTTTCCCGGTAATCCGTATTTGAC (site GTAGGTACTGT)”: 0.575.
The same measure for “GTAGTTACATGGACCGGTTTTCCCGGTAATCCGTATTTGAC (site GTAGTTACTGT)”: 2.74.
With “GTAGTTCCATGGACCGGTTTTCCCGGTAATCCGTATTTGGT (site GTAGTTCCTAC)”, the “recombinant UMI read abundance (log10)” value is 0.849.
The same measure for “GTAGTTCCATGGACCGGTTTTCCCGGTAATCCGTATTTGGT (site GTCGTTCCTAC)”: 0.
The same measure for “GTAGTTCCATGGACCGGTTTTCCCGGTAATCCGTATTTGGT (site GTGGTTCCTAC)”: 0.00522; for “GTAGTTCCATGGACCGGTTTTCCCGGTAATCCGTATTTGGT (site GTTGTTCCTAC)”: 0.00774.
For the sequence “GTATCAGCATGGACCGGTTTTCCCGGTAATCCGTATTTGTC (site GTATCAGCTGA)”, the “recombinant UMI read abundance (log10)” value was found to be 3.03.
The same measure for “GTATCTACATGGACCGGTTTTCCCGGTAATCCGTATTTGCT (site GTATCTACTAG)”: 1.66; for “GTATCTCCATGGACCGGTTTTCCCGGTAATCCGTATTTGTA (site GTATCTCCTTA)”: 0.705; for “GTATGCACATGGACCGGTTTTCCCGGTAATCCGTATTTGTC (site GTATGCACTAA)”: 0.663.
Turning to “GTATGCACATGGACCGGTTTTCCCGGTAATCCGTATTTGTC (site GTATGCACTCA)”, the “recombinant UMI read abundance (log10)” value was 0.0163.
Next, “GTATGCACATGGACCGGTTTTCCCGGTAATCCGTATTTGTC (site GTATGCACTGA)”: 3.13.
Next, “GTATGCACATGGACCGGTTTTCCCGGTAATCCGTATTTGTC (site GTATGCACTTA)”: 1.33.
For the sequence “GTATGCACATGGACCGGTTTTCCCGGTAATCCGTATTTGTT (site GTATGCACTAA)”, the “recombinant UMI read abundance (log10)” value came to 1.32.
As for “GTATGCACATGGACCGGTTTTCCCGGTAATCCGTATTTGTT (site GTATGCACTCA)”, the “recombinant UMI read abundance (log10)” value is 0.25.
As to “GTATGCACATGGACCGGTTTTCCCGGTAATCCGTATTTGTT (site GTATGCACTGA)”, the “recombinant UMI read abundance (log10)” value was 1.66.
Next, “GTATGCACATGGACCGGTTTTCCCGGTAATCCGTATTTGTT (site GTATGCACTTA)”: 0.606; “GTATGTACATGGACCGGTTTTCCCGGTAATCCGTATTTGAC (site GTAAGTACTGT)”: 0.262; “GTATGTACATGGACCGGTTTTCCCGGTAATCCGTATTTGAC (site GTACGTACTGT)”: 2.5.
The same measure for “GTATGTACATGGACCGGTTTTCCCGGTAATCCGTATTTGAC (site GTAGGTACTGT)”: 0.95.
Next, “GTATGTACATGGACCGGTTTTCCCGGTAATCCGTATTTGAC (site GTATGTACTGT)”: 2.9; “GTATTAACATGGACCGGTTTTCCCGGTAATCCGTATTTGCA (site GTATTAACTTG)”: 2.37; “GTATTATCATGGACCGGTTTTCCCGGTAATCCGTATTTGTG (site GTATTATCTCA)”: 2.22.
On to “GTATTCACATGGACCGGTTTTCCCGGTAATCCGTATTTGTA (site GTATACACTTA)”, for which the “recombinant UMI read abundance (log10)” value was found to be 0.154.
Next, “GTATTCACATGGACCGGTTTTCCCGGTAATCCGTATTTGTA (site GTATCCACTTA)”: 0.507.
Next, “GTATTCACATGGACCGGTTTTCCCGGTAATCCGTATTTGTA (site GTATGCACTTA)”: 0.0233.
Next, “GTATTCACATGGACCGGTTTTCCCGGTAATCCGTATTTGTA (site GTATTCACTTA)”: 2.35.
In the case of “GTATTGACATGGACCGGTTTTCCCGGTAATCCGTATTTGTG (site GTATTGACTCA)”, the “recombinant UMI read abundance (log10)” value is 1.4.
The same measure for “GTCAAAGCATGGACCGGTTTTCCCGGTAATCCGTATTTGGT (site GTCAAAGCTAC)”: 2.11; for “GTCAACACATGGACCGGTTTTCCCGGTAATCCGTATTTGTC (site GTCAACACTGA)”: 2.35.
“GTCAGATCATGGACCGGTTTTCCCGGTAATCCGTATTTGCG (site GTCAGATCTCG)”: the “recombinant UMI read abundance (log10)” value was found to be 1.77.
Turning to “GTCAGTGCATGGACCGGTTTTCCCGGTAATCCGTATTTGCA (site GTCAGTGCTTG)”, the “recombinant UMI read abundance (log10)” value worked out at 2.49.
Next, “GTCCAGGCATGGACCGGTTTTCCCGGTAATCCGTATTTGTA (site GTCCAGGCTTA)”: 0.928; “GTCCTATCATGGACCGGTTTTCCCGGTAATCCGTATTTGGA (site GTCCTATCTTC)”: 1.41; “GTCCTTACATGGACCGGTTTTCCCGGTAATCCGTATTTGAG (site GTCCTTACTCT)”: 0.376.
Take “GTCGAACCATGGACCGGTTTTCCCGGTAATCCGTATTTGAC (site GTCGAACCTGT)”: the “recombinant UMI read abundance (log10)” value is 0.
Next, “GTCGAATCATGGACCGGTTTTCCCGGTAATCCGTATTTGGG (site GTCGAATCTCC)”: 0.914; “GTCGAGTCATGGACCGGTTTTCCCGGTAATCCGTATTTGTT (site GTCGAGTCTAA)”: 2.79.
The same measure for “GTCGGGACATGGACCGGTTTTCCCGGTAATCCGTATTTGGG (site GTCGGGACTCC)”: 0.0114; for “GTCGGGGCATGGACCGGTTTTCCCGGTAATCCGTATTTGGC (site GTCGGGGCTGC)”: 1.22; for “GTCGTAGCATGGACCGGTTTTCCCGGTAATCCGTATTTGCC (site GTCGTAGCTGG)”: 2.67.
The same measure for “GTCGTTGCATGGACCGGTTTTCCCGGTAATCCGTATTTGAA (site GTCGTTGCTTT)”: 2.14; for “GTCTATACATGGACCGGTTTTCCCGGTAATCCGTATTTGAC (site ATCTATACTGT)”: 0.841.
Turning to “GTCTATACATGGACCGGTTTTCCCGGTAATCCGTATTTGAC (site CTCTATACTGT)”, the “recombinant UMI read abundance (log10)” value worked out at 0.0424.
Next, “GTCTATACATGGACCGGTTTTCCCGGTAATCCGTATTTGAC (site GTCTATACTGT)”: 2.33; “GTCTATACATGGACCGGTTTTCCCGGTAATCCGTATTTGAC (site TTCTATACTGT)”: 1.01; “GTCTATTCATGGACCGGTTTTCCCGGTAATCCGTATTTGAC (site GTCTATTCTGT)”: 2.09.
The same measure for “GTCTGATCATGGACCGGTTTTCCCGGTAATCCGTATTTGCG (site GTCTGATCTCG)”: 2.17.
The same measure for “GTCTGATCATGGACCGGTTTTCCCGGTAATCCGTATTTGGG (site GTCTGATCTCC)”: 0.011; for “GTCTGCACATGGACCGGTTTTCCCGGTAATCCGTATTTGTA (site GTATGCACTTA)”: 0.0171; for “GTCTGCACATGGACCGGTTTTCCCGGTAATCCGTATTTGTA (site GTCTGCACTTA)”: 1.44.
With “GTCTGCACATGGACCGGTTTTCCCGGTAATCCGTATTTGTA (site GTGTGCACTTA)”, the “recombinant UMI read abundance (log10)” value stood at 0.0326.
Consider “GTCTGCACATGGACCGGTTTTCCCGGTAATCCGTATTTGTA (site GTTTGCACTTA)”, for which the “recombinant UMI read abundance (log10)” value worked out at 0.0829.
Next, “GTGAGAACATGGACCGGTTTTCCCGGTAATCCGTATTTGGC (site GTAAGAACTGC)”: 2.2; “GTGAGAACATGGACCGGTTTTCCCGGTAATCCGTATTTGGC (site GTCAGAACTGC)”: 0.
